The test system of one test is Staphylococcus aureus. Briefly: Bacterial inhibition in mouse model, survival after S. aureus septic shock. It is filed as in vivo, mice. Conditions: 1 mg/mouse peritoneally 3 days and 1 day prior, 1×10^9 S. aureus intravenously, FIG. 6. How it is done: Skin is directly vulnerable to or may suffer from single infection with various bacteria and about 90% of atopic patients suffer from secondary infections with bacteria such as Staphylococcus spp. Therefore, there is a need for bacterial inhibition and amelioration of infectious diseases. Prior to the test of skin itching due to bacterial infections, this experiment was carried out to test whether beta-glucan has direct synergistic effects on antibacterial activity and antibiotic activity in vivo, using a mouse model.
Erythromycin was used as an antibiotic and Staphylococcus aureus, one of staphylococci as a major cause of skin infections, was used as the test bacteria. Each experimental group was composed of 6 to 7 mice per group. Experiments were carried out as follows.
1) 3 days and I day prior to bacterial challenge, 1 mg/mouse of saline, antibiotic, beta-glucan, or a beta-glucan/antibiotic mixture was peritoneally injected into mice.
2) 30 min prior to bacterial administration, 18 mg/kg of the antibiotic was subcutaneously injected into the mice.
3) Then, 1×10^9 of bacteria (S. aureus) were intravenously injected to induce septic shock.
4) Finally, a survival rate (%) of the animals was periodically confirmed every 12 hours.

In another test the test system is human skin cells. Kind of test: Synthesis of filaggrin by skin cells, Western blotting. In kind it is cell-based. Conditions: beta-glucan 0.01%, 2 days treatment, FIG. 4. How it is done: In order to examine production of a natural moisturizing factor (NMF) having an important effect on skin moisturization, synthesis of filaggrin, which is a precursor of the natural moisturizing factor, was tested on human skin cells. First, skin cells were introduced into a culture flask and allowed to adhere to the bottom of the flask. Then, cells were cultured for 2 days by co-addition of 35-S-methionine upon treatment of a test material. After the cultivation was complete, the culture medium was removed and the cells were dissolved in phosphate buffered saline (PBS) containing 2% sodium dodecyl sulfate and 20 mM dithiothreitol (DTT). After the skin cells were cultured, treatment of the cells with the test material was carried out for 2 days. After the test material treatment was complete, the medium was removed, and only the cells were taken and disrupted using an ultrasonic disintegrator to thereby obtain only a protein. Using the thus-obtained protein, an amount of synthesized filaggrin was determined by Western blotting analysis. FIG. 4 is a graph showing an expression amount of filaggrin by Western blotting analysis. Clofibrate was used as a positive control, and beta-glucan was added to a concentration of 0.01% for the test.
A general note: A western blot detects proteins with antibodies after separation by electrophoresis.

The next test deals with hairless mice. Kind of test: Skin moisture loss (TEWL) recovery after acetone-induced skin barrier damage. In kind it is in vivo. As to the method:
This experiment was carried out to evaluate effects of beta-glucan on recovery of a skin barrier function loss due to long-term skin damage.
A barrier function of dorsal skin of experimental animals was damaged by periodic application of acetone to the dorsal parts of young hairless mice (10 weeks old) for 3 consecutive days three times a day. Trans-epidermal water loss (TEWL) was measured in the experimental animals. For only the mice having skin with more than 40 g/m′/hr of TEWL, a vehicle (propylene glycol:water=5:5) and a sample containing 0.2% beta-glucan of Example 1 were applied at a dose of 200 μl per 5 cm^2 of a skin area for 3 consecutive days three times a day, and TEWL was measured periodically.

The mark [1] stands for this setting: at 48 hours after the bacterial infection.
The mark [2] stands for this setting: one week after the bacterial infection.

`CC[C@H]1OC(=O)[C@H](C)[C@@H](O[C@H]2C[C@@](C)(OC)[C@@H](O)[C@H](C)O2)[C@H](C)[C@@H](O[C@@H]2O[C@H](C)C[C@H](N(C)C)[C@H]2O)[C@](C)(O)C[C@@H](C)C(=O)[C@H](C)[C@@H](O)[C@]1(C)O` [antibiotic, Erythromycin, reference compound]: the results for the survival rate result with Staphylococcus aureus (setting [1]) and in the test with Staphylococcus aureus (setting [2]) were “all killed” and “all dead”, respectively.
“beta-1,6-branched-beta-1,3-glucan [beta-glucan]”: the “synthesis of filaggrin in skin cells” value in the test on human skin cells is “significantly increased”. Besides, the “recovery from skin barrier damage compared to vehicle group” value with hairless mice (0.2% beta-glucan of Example 1, 200 μl per 5 cm^2, 3 days three times a day, FIG. 5) is recorded as “rapid recovery”. The “recovery of the trans-epidermal water loss” value in the test with hairless mice (after 10 hours, 0.2% beta-glucan of Example 1 topical) is at least 50%. The survival rate is 40% in the test with Staphylococcus aureus (setting [1]) and “all dead” with Staphylococcus aureus (setting [2]).

The values above are taken from patent US20090023681A1, “METHOD OF USING BETA-GLUCAN FROM SCHIZOPHYLLUM COMMUNE” (priority 2007, published 2009).
